Key:
[1] = test system: cholesterol oxidase derived from ST-200 strain; experiment: Substrate specificity of enzyme; format: biochemical, Pseudomonas sp. ST-200; details: for Relative activity (%): various substrates, 30° C., pH 7, enzyme activity with cholesterol set to be 100
[2] = test system: cholesterol oxidase derived from ST-200 strain; experiment: Effect of metal ions and the like on enzyme activity; format: biochemical, Pseudomonas sp. ST-200; details: pH 7
[3] = test system: cholesterol oxidase derived from Brevibacterium sp.; experiment: Effect of organic solvents on enzyme activity (Brevibacterium sp.); format: biochemical; details: organic solvent 50% by volume of reaction solution; pH 7, 30° C.; no solvent = 1
[4] = test system: cholesterol oxidase derived from Pseudomonas sp.; experiment: Effect of organic solvents on enzyme activity (Pseudomonas sp.); format: biochemical; details: organic solvent 50% by volume of reaction solution; pH 7, 30° C.; no solvent = 1
[5] = test system: cholesterol oxidase derived from Streptomyces sp.; experiment: Effect of organic solvents on enzyme activity (Streptomyces sp.); format: biochemical; details: organic solvent 50% by volume of reaction solution; pH 7, 30° C.; no solvent = 1
[6] = test system: cholesterol oxidase derived from Nocardia erythropolis; experiment: Effect of organic solvents on enzyme activity (Nocardia erythropolis); format: biochemical; details: organic solvent 50% by volume of reaction solution; pH 7, 30° C.; no solvent = 1
[7] = test system: cholesterol oxidase derived from ST-200 strain; experiment: Effect of organic solvents on enzyme activity (ST-200); format: biochemical, Pseudomonas sp. ST-200; details: for Relative activity, ST-200: organic solvent 50% by volume of reaction solution, pH 7, 30° C., no solvent = 1; for Reaction velocity in solvent compared to cholesterol oxidases of Nocardia erythropolis, Pseudomonas sp., Streptomyces sp., Brevibacterium sp. (in words): organic solvent 50% by volume, 30° C., pH 7
[8] = test system: cholesterol oxidase derived from Brevibacterium sp.; experiment: Enzyme kinetics (Km, Vmax) of cholesterol oxidation, Lineweaver-Burk; format: biochemical; details: 30° C., pH 7
Method: (§1) Enzyme activity was measured as described in Test Example 1 at 30° C. at pH 7.

[9] = test system: cholesterol oxidase derived from Streptomyces sp.; experiment: as above; format: biochemical; details: 30° C., pH 7
Method: as §1

[10] = test system: cholesterol oxidase derived from Pseudomonas sp. ST-200 (FERM BP-6661); experiment: as above; format: biochemical; details: 30° C., pH 7, 0 to 1 mM cholesterol
Method: as §1

[11] = test system: cholesterol oxidase derived from Pseudomonas sp. (comparison); experiment: as above; format: biochemical; details: 30° C., pH 7
Method: as §1

[12] = test system: cholesterol oxidase derived from Nocardia erythropolis; experiment: as above; format: biochemical; details: 30° C., pH 7
Method: as §1

[13] = 0.03% Triton X-100, 0 to 1 mM cholesterol
[14] = head 0.03% Triton X-100 (0.3% in text)
[15] = additive 1 mM, 30° C., cholesterol as substrate, activity without additive set to be 100

C[C@]12CC[C@H](O)C[C@@H]1CC[C@@H]1[C@@H]2CC[C@]2(C)C(=O)CC[C@@H]12 [Epiandrosterone, 5α-androstan-3β-ol-17-one]
Relative activity (%) [1]: 10%

CC(C)[C@@H](C)C=C[C@@H](C)[C@H]1CC[C@H]2C3=CC=C4C[C@@H](O)CC[C@]4(C)[C@H]3CC[C@]12C [Ergosterol, Ergosta-5,7,22-trien-3β-ol]
Relative activity (%) [1]: 20%

[Ca+2].[Cl-].[Cl-] [Calcium chloride]
Relative activity (%) [2]: 106%

CC(=O)[C@H]1CC[C@H]2[C@@H]3CC=C4C[C@@H](O)CC[C@]4(C)[C@H]3CC[C@]12C [Pregnenolone, 3β-Hydroxypregn-5-en-20-one]
Relative activity (%) [1]: 32%

[Cl-].[Cl-].[Mg+2] [Magnesium chloride]
Relative activity (%) [2]: 102%

c1ccccc1 [Benzene]
Relative activity, Brevibacterium sp. [3]: 0.5
Relative activity, Pseudomonas sp. [4]: 1.3
Relative activity, Streptomyces sp. [5]: 0.9
Relative activity, Nocardia erythropolis [6]: 1.5
Effect of organic solvent on reaction velocity (in words) [7]: increased
Relative activity, ST-200 [7]: 3.0
Reaction velocity in solvent compared to cholesterol oxidases of Nocardia erythropolis, Pseudomonas sp., Streptomyces sp., Brevibacterium sp. (in words) [7]: higher reaction velocity

CC[C@H](CC[C@@H](C)[C@H]1CC[C@H]2[C@@H]3CC=C4C[C@@H](O)CC[C@]4(C)[C@H]3CC[C@]12C)C(C)C [β-sitosterol, sitost-5-en-3β-ol]
Action of the enzyme on the substrate (in words) [1]: strongly oxidized
Relative activity (%) [1]: 84%

CC(C)CCC[C@@H](C)[C@H]1CC[C@H]2[C@@H]3CC=C4C[C@@H](O)CC[C@]4(C)[C@H]3CC[C@]12C [Cholesterol, cholest-5-en-3β-ol]
Action of the enzyme on the substrate (in words) [1]: strongly oxidized
Relative activity (%) [1]: 100%
Km [8, 13]: 63.3 µM
Vmax [8, 13]: 12.0 µmol/min/mg
Km [8, 14]: 925 µM
Vmax [8, 14]: 11.3 µmol/min/mg
Km [9, 13]: 16.3 µM
Vmax [9, 13]: 15.8 µmol/min/mg
Km [9, 14]: 160 µM
Vmax [9, 14]: 15.3 µmol/min/mg
Km ([10]; 0.03% Triton X-100): 4.04 µM
Vmax ([10]; 0.03% Triton X-100): 13.1 µmol/min/mg
Km [10, 14]: 52.2 µM
Vmax [10, 14]: 12.1 µmol/min/mg
Km [11, 13]: 9.41 µM
Vmax [11, 13]: 11.0 µmol/min/mg
Km [11, 14]: 76.1 µM
Vmax [11, 14]: 10.3 µmol/min/mg
Km [12, 13]: 5.14 µM
Vmax [12, 13]: 9.8 µmol/min/mg
Km [12, 14]: 44 µM
Vmax [12, 14]: 6.8 µmol/min/mg

Manganese chloride
Relative activity (%) [2, 15]: 92%

CCCc1ccccc1 [Propylbenzene]
Relative activity, Brevibacterium sp. [3]: 0.8
Relative activity, Pseudomonas sp. [4]: 1.3
Relative activity, Streptomyces sp. [5]: 1.1
Relative activity, Nocardia erythropolis [6]: 1.6
Effect of organic solvent on reaction velocity (in words) [7]: increased
Relative activity, ST-200 [7]: 3.2
Reaction velocity in solvent compared to cholesterol oxidases of Nocardia erythropolis, Pseudomonas sp., Streptomyces sp., Brevibacterium sp. (in words) [7]: higher reaction velocity

C[C@]12CC[C@H](O)CC1=CC[C@@H]1[C@@H]2CC[C@]2(C)C(=O)CC[C@@H]12 [Dehyoepiandrosterone, 3β-Hydroxyandrost-5-en-17-one]
Relative activity (%) [1]: 16%

ClC(Cl)Cl [Chloroform]
Relative activity, Brevibacterium sp. [3]: <0.1
Relative activity, Pseudomonas sp. [4]: 0.1
Relative activity, Streptomyces sp. [5]: 0.1
Relative activity, Nocardia erythropolis [6]: 0.3
Relative activity, ST-200 [7]: 0.2

Cc1ccccc1 [Toluene]
Relative activity, Brevibacterium sp. [3]: 0.5
Relative activity, Pseudomonas sp. [4]: 1.4
Relative activity, Streptomyces sp. [5]: 1.2
Relative activity, Nocardia erythropolis [6]: 1.7
Effect of organic solvent on reaction velocity (in words) [7]: increased
Relative activity, ST-200 [7]: 3.5
Reaction velocity in solvent compared to cholesterol oxidases of Nocardia erythropolis, Pseudomonas sp., Streptomyces sp., Brevibacterium sp. (in words) [7]: higher reaction velocity

Iron sulfate
Relative activity (%) [2, 15]: 94%

[Cl-].[Cl-].[Zn+2] [Zinc chloride]
Relative activity (%) [2]: 92%

From patent US20030153051A1, “Cholesterol oxidase” (priority 1998, published 2003)
